Data reported in patent US10342766B2, “6-shogaol derivatives and activities thereof” (North Carolina Agricultural and Technical State University, priority 2017, dated 2019).

How the values were obtained:
[1] = Formation of cysteine conjugates in mice (urine, LC/MS); format: in vivo, mouse; conditions: oral gavage 200 mg/kg, urine collected in 24 h
Method: LC/MS analysis was carried out with a Thermo-Finnigan Spectra System, which consisted of an Accela high speed MS pump, an Accela refrigerated autosampler, and an LCQ Fleet ion trap mass detector (Thermo Electron, San Jose, Calif., United States of America) incorporated with an electrospray ionization (ESI) interface. A Gemini-NX C18 column (150 mm×4.6 mm i.d., 5 μm; Phenomenex, Torrance, Calif., United States of America) was used for separation at a flow rate of 0.3 mL/min. The column was eluted with 100% A (5% aqueous methanol with 0.2% formic acid) for 1 min, followed by linear increases in B (95% aqueous methanol with 0.2% formic acid) to 55% from 1 to 4 min, to 85% from 4 to 25 min, then to 100% B from 25 to 30 min, and then with 100% B from 30 to 35 min. The column was then re-equilibrated with 100% A for 5 min. The LC eluent was introduced into the ESI interface. The positive ion polarity mode was set for the ESI source with the voltage on the ESI interface maintained at approximately 4.6 kV. Nitrogen gas was used as the sheath gas and auxiliary gas. […] The mass range was measured from 100 to 800 m/z. […]
Enzymatic deconjugation of mouse urine was performed as described previously with slight modifications. […] The resulting suspension was centrifuged at 17,000 g for 5 min, and 10 μL of supernatant was analyzed directly by LC/MS.

[2] = tested on: human colon cancer cells HT-29; test: MTT growth inhibition, HT-29; format: cell-based; conditions: 24 hours
Method: Cell viability was determined by an MTT colorimetric assay. Briefly, human colon cancer cells HCT-116 or HT-29, were plated in 96-well microtiter plates with 3000 cells/well and allowed to attach for 24 hours at 37° C. and 5% CO2. The test compounds (in DMSO) were added to cell culture medium to desired final concentrations (final DMSO concentrations for control and treatments were 0.1%). After the cells were cultured for 24 hours, the medium was aspirated and cells were treated with 200 μL fresh medium containing 2.41 mmol/L MTT. After incubation for 3 hours at 37° C., the medium containing MTT was aspirated, 100 μL of DMSO was added to solubilize the formazan precipitate, and the plates were shaken gently for an hour at room temperature. Absorbance values were derived from the plate reading at 550 nm on a Biotek (Winooski, Vt., United States of America) microtiter plate reader. The reading reflected the number of viable cells and was expressed as a percentage of viable cells in the control. CCD-18Co cells were grown in EMEM. Both HCT-116 and HT-29 cells were cultured in McCoy's 5A medium. All of the above media were supplemented with 10% fetal bovine serum, 1% penicillin/streptomycin, and 1% glutamine, and the cells were kept in a 37° C. incubator with 95% humidity and 5% CO2.

[3] = Biotransformation in zebrafish embryos (cysteine conjugates, LC/MS); format: in vivo; conditions: 5 μM in incubation medium, 8 hpf to 24 hpf
Method: Fifty zebrafish embryos at the 8 hour-post-fertilization (hpf) stage were incubated at 28.5° C. in 0.3× Danieau's solution (19.3 mM NaCl, 0.23 mM KCl, 0.13 mM MgSO4, 0.2 mM Ca(NO3)2, 1.7 mM HEPES, pH 7.0) with or without 5 μM 18 and 25-27, respectively. At 24 hpf, embryos were dechorionated manually and the chorions were carefully removed one by one from the culture medium. The zebrafish embryos were harvested and kept at −80° C. till analyzed by LC/MS.
200 μL Sodium acetate buffer solution (pH 5.0) was added to 50 zebrafish embryos. Samples were homogenized for 90 s by an Omni Bead Ruptor Homogenizer (Kennesaw, Ga., United States of America). 10 μL 10% ascorbic acid and 300 μL sodium acetate buffer were added to the homogenates. The mixture was incubated in the presence of β-glucuronidase (250 U) and sulfatase (3 U) at 37° C. for 45 min, and then 600 μL MeOH with 1% acetic acid was added. The resulting mixture was vortexed for 30 s and then centrifuged at 17000 g for 10 min. The supernatant was removed and evaporated under a gentle stream of nitrogen. The residue was reconstituted in 150 μL 90% MeOH with 0.2% acetic acid (AA), and 10 μL was analyzed directly by LC/MS.
LC/MS analysis was carried out with a Thermo-Finnigan Spectra System, which consisted of an Accela high speed MS pump, an Accela refrigerated autosampler, and an LCQ Fleet ion trap mass detector (Thermo Electron, San Jose, Calif., United States of America) incorporated with an electrospray ionization (ESI) interface. A Gemini-NX C18 column (150 mm×4.6 mm i.d., 5 μm; Phenomenex, Torrance, Calif., United States of America) was used for separation at a flow rate of 0.3 mL/min. The column was eluted with 100% A (5% aqueous methanol with 0.2% formic acid) for 1 min, followed by linear increases in B (95% aqueous methanol with 0.2% formic acid) to 55% from 1 to 4 min, to 85% from 4 to 25 min, then to 100% B from 25 to 30 min, and then with 100% B from 30 to 35 min. The column was then re-equilibrated with 100% A for 5 min. The LC eluent was introduced into the ESI interface. The positive ion polarity mode was set for the ESI source with the voltage on the ESI interface maintained at approximately 4.6 kV. Nitrogen gas was used as the sheath gas and auxiliary gas. Optimized source parameters, including capillary temperature (260° C.), sheath gas flow rate (31 arbitrary units), auxiliary gas flow rate (16 units), tube lens (34 V), and capillary voltage 9 V, were tuned using authentic samples. The collision-induced dissociation (CID) was conducted with an isolation width 2 Da and normalized collision energy of 35 for MS^2. The mass range was measured from 100 to 800 m/z. Data acquisition was performed with Xcalibur version 2.0 (Thermo Electron, San Jose, Calif., United States of America).

For `CCCCCCCC(=O)/C=C/c1ccc(O)c(O)c1` [Compound 27], the “Cysteine conjugates found in mouse urine” value [1] was “conjugate 36 and its reduced form 36a, three additional conjugates 37, 37a, and 37b”, the IC50 [2] was 78.4 µM and the “Cysteine conjugates found in zebrafish embryos” value [3] was “four cysteine conjugates 36, 36a, 37, and 37b were found”.
